According to PMC4730229, “Benzobisthiazoles Represent a Novel Scaffold for Kinase Inhibitors of CLK Family Members” (Biochemistry, 2015):

What was measured:
Assay type in all cases: biochemical
[1] = target: GSK3b (Homo sapiens, UniProt P49841); assay: Kinase profiling (radioactive filter binding); details: 1 uM compound
Description: (§1) 3A5 and 5E4 were sent to the International Centre for Kinase Profiling at the MRC Protein Phosphorylation and Ubiquitylation Unit for profiling (as described in ref ([17])). Compounds were profiled against 140 kinases using a radioactive ([^33P]ATP) filter binding assay at a concentration of 1 μM. Results were obtained as inhibition of kinase activity and are listed in Supplementary Table 2.

[2] = target: CHK2 (Homo sapiens, UniProt O96017); assay: Kinase profiling (radioactive filter binding); details: 1 uM compound
Description: as §1

[3] = target: LKB1 (Homo sapiens, UniProt Q15831); assay: Kinase profiling (radioactive filter binding); details: 1 uM compound
Description: as §1

[4] = target: MKK2 (Homo sapiens, UniProt P36507); assay: Kinase profiling (radioactive filter binding); details: 1 uM compound
Description: as §1

[5] = target: NEK6 (Homo sapiens, UniProt Q9HC98); assay: Kinase profiling (radioactive filter binding); details: 1 uM compound
Description: as §1

[6] = target: CSK (Homo sapiens, UniProt P41240); assay: Kinase profiling (radioactive filter binding); details: 1 uM compound
Description: as §1

[7] = target: MKK1 (Homo sapiens, UniProt Q02750); assay: Kinase profiling (radioactive filter binding); details: 1 uM compound
Description: as §1

[8] = target: MARK3 (Homo sapiens, UniProt P27448); assay: Kinase profiling (radioactive filter binding); details: 1 uM compound
Description: as §1

[9] = target: p38g MAPK (Homo sapiens, UniProt P53778); assay: Kinase profiling (radioactive filter binding); details: 1 uM compound
Description: as §1

[10] = target: S6K1 (Homo sapiens, UniProt P23443); assay: Kinase profiling (radioactive filter binding); details: 1 uM compound
Description: as §1

[11] = target: MST4 (Homo sapiens, UniProt Q9P289); assay: Kinase profiling (radioactive filter binding); details: 1 uM compound
Description: as §1

[12] = target: Aurora B (Homo sapiens, UniProt Q96GD4); assay: Kinase profiling (radioactive filter binding); details: 1 uM compound
Description: as §1

[13] = target: TESK1 (Homo sapiens, UniProt Q15569); assay: Kinase profiling (radioactive filter binding); details: 1 uM compound
Description: as §1

[14] = target: DDR2 (Homo sapiens, UniProt Q16832); assay: Kinase profiling (radioactive filter binding); details: 1 uM compound
Description: as §1

[15] = target: EPH-B3 (Homo sapiens, UniProt P54753); assay: Kinase profiling (radioactive filter binding); details: 1 uM compound
Description: as §1

[16] = target: JNK1 (Homo sapiens, UniProt P45983); assay: Kinase profiling (radioactive filter binding); details: 1 uM compound
Description: as §1

[17] = target: RIPK2 (Homo sapiens, UniProt O43353); assay: Kinase profiling (radioactive filter binding); details: 1 uM compound
Description: as §1

[18] = target: HIPK2 (Homo sapiens, UniProt Q9H2X6); assay: Kinase profiling (radioactive filter binding); details: 1 uM compound
Description: as §1

[19] = target: WNK1 (Homo sapiens, UniProt Q9H4A3); assay: Kinase profiling (radioactive filter binding); details: 1 uM compound
Description: as §1

[20] = target: CLK2 (Homo sapiens, UniProt P49760); assay: Kinase profiling (radioactive filter binding); details: for CLK2 activity in kinase profiling: 1 uM compound; for inhibition at 1 µM: 1 μM compound, read-out: inhibition of CLK2 in kinase panel
Description: as §1

[21] = target: IRAK1 (Homo sapiens, UniProt P51617); assay: Kinase profiling (radioactive filter binding); details: 1 uM compound
Description: as §1

[22] = target: PDK1 (Homo sapiens, UniProt O15530); assay: Kinase profiling (radioactive filter binding); details: 1 uM compound
Description: as §1

[23] = target: MPSK1 (Homo sapiens, UniProt O75716); assay: Kinase profiling (radioactive filter binding); details: 1 uM compound
Description: as §1

[24] = target: PKD1 (Homo sapiens, UniProt Q15139); assay: Kinase profiling (radioactive filter binding); details: 1 uM compound
Description: as §1

[25] = target: IR (Homo sapiens, UniProt P06213); assay: Kinase profiling (radioactive filter binding); details: 1 uM compound
Description: as §1

[26] = target: p38d MAPK (Homo sapiens, UniProt O15264); assay: Kinase profiling (radioactive filter binding); details: 1 uM compound
Description: as §1

[27] = target: RSK1 (Homo sapiens, UniProt Q15418); assay: Kinase profiling (radioactive filter binding); details: 1 uM compound
Description: as §1

[28] = target: PKBa (Homo sapiens, UniProt P31749); assay: Kinase profiling (radioactive filter binding); details: 1 uM compound
Description: as §1

[29] = target: SmMLCK (Homo sapiens, UniProt Q15746); assay: Kinase profiling (radioactive filter binding); details: 1 uM compound
Description: as §1

[30] = tested on: firefly luciferase; assay: Luciferase inhibition assay (Kinase-Glo, no kinase); details: compound at 10 μM
Description: For analysis of luciferase inhibition, 10 μL of luciferase reagent (Kinase-Glo, Promega) was added to 10 μL of a mixture consisting of 1 μM ATP and 5 μM S6K and 10 μM compound (potential kinase inhibitor) in buffer A in the absence of kinase and incubated for 10 min at room temperature in a white well plate before the luminescence was read. The percentage of inhibition is equal to (luminescence in the assay without compound – luminescence in the assay with compound)/(luminescence in the assay without compound) × 100.

[31] = target: T1, GST-CLK2cd (CLK2 catalytic domain) (Homo sapiens, UniProt P49760); assay: High-throughput screen, Kinase-Glo in vitro kinase assay; details: compound at 10 μM; read-out: percentage of inhibition on CLK2 (primary screen)
T1 construct: cDNA encoding the CLK2 catalytic domain (CLK2cd, amino acids 140–496); made in house; host or cells: Escherichia coli BL21(DE3)-R3-lambda-PPase
Description: A small molecule inhibitor library consisting of 1600 compounds was obtained from LIFE Chemicals (Kiev, Ukraine). These compounds are part of the CUTE kinase collection that was predicted by in silico profiling against a panel of targets and includes potent kinase inhibitor compounds.[16] Compounds were dissolved as 10 mM stocks in DMSO and stored at room temperature, in the presence of 5% humidity and 5% oxygen in the dark in a Roylan Storage Pod system. Compounds were dispensed into white 384-well plates using the Labcyte Echo520 instrument at a final concentration of 10 μM. Next, 5 μL of 144.92 nM purified GST-CLK2cd in kinase assay buffer A was added to the compounds, incubated for 10 min at room temperature prior to addition of 5 μL of a 2 μM ATP/10 μM S6K peptide mixture, and incubated again for 60 min at room temperature. Subsequently, 10 μL of Kinase-Glo was added to the wells, and the plates were analyzed after 10 min on the Envision II multilabel plate reader (PerkinElmer). […] The percentage of inhibition is equal to 100 – [(total ATP before assay – remaining ATP in assay with compound)/(total ATP before assay – remaining ATP in assay with DMSO) × 100].

Sequence of CLK2 (P49760 whole entry): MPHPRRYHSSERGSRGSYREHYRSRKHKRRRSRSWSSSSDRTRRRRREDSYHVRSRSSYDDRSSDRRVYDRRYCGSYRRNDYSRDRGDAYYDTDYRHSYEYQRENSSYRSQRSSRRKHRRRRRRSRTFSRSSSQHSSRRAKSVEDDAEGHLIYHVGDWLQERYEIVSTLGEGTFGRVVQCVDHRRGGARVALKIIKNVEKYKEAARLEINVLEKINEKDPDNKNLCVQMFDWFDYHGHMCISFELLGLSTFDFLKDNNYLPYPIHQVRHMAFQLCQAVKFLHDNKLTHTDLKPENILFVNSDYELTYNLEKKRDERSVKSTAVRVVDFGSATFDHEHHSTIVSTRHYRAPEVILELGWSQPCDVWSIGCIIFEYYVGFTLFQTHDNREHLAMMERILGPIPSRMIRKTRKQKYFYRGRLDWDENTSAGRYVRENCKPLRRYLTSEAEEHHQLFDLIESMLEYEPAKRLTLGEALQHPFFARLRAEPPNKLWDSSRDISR
Sequence of HIPK2 (Q9H2X6 whole entry): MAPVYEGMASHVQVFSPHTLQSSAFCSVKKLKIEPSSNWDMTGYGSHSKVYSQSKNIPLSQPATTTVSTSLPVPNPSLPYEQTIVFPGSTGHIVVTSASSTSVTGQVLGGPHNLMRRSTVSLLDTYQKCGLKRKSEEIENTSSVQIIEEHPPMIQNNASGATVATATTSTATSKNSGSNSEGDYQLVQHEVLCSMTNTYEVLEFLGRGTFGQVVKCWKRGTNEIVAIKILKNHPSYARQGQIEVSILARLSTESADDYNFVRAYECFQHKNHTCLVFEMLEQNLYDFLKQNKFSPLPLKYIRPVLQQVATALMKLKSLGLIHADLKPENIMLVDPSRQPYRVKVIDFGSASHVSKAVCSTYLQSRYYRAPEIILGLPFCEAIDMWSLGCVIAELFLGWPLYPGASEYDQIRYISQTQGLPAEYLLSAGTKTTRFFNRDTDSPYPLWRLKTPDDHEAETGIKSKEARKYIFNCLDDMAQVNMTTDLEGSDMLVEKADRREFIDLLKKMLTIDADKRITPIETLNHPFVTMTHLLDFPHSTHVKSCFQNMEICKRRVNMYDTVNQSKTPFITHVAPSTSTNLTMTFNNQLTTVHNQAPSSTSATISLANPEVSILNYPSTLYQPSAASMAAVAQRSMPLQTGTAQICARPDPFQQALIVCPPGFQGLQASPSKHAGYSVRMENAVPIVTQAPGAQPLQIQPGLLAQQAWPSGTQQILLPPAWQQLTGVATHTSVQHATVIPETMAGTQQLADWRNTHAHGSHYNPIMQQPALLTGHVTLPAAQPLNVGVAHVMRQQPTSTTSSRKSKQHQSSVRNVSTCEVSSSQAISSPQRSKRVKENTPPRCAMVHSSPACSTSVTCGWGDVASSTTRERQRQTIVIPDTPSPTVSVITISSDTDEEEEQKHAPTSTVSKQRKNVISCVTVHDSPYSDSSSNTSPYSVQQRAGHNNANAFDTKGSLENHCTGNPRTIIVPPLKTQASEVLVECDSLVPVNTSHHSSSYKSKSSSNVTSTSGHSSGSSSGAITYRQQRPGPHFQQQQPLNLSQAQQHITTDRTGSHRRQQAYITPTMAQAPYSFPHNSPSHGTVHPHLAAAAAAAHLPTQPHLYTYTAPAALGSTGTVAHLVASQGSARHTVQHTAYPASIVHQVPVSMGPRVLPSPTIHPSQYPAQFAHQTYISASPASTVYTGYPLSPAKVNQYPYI
Sequence of MPSK1 (O75716 whole entry): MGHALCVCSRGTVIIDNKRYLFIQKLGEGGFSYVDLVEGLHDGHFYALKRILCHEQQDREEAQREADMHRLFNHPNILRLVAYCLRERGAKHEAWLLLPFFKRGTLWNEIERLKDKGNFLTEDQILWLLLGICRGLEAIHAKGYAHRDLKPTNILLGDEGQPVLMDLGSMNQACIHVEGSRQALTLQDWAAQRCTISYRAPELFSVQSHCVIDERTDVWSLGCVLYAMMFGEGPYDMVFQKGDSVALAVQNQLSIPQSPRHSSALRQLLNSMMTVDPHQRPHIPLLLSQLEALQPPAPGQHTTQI
Sequence of EPH-B3 (P54753 34-998): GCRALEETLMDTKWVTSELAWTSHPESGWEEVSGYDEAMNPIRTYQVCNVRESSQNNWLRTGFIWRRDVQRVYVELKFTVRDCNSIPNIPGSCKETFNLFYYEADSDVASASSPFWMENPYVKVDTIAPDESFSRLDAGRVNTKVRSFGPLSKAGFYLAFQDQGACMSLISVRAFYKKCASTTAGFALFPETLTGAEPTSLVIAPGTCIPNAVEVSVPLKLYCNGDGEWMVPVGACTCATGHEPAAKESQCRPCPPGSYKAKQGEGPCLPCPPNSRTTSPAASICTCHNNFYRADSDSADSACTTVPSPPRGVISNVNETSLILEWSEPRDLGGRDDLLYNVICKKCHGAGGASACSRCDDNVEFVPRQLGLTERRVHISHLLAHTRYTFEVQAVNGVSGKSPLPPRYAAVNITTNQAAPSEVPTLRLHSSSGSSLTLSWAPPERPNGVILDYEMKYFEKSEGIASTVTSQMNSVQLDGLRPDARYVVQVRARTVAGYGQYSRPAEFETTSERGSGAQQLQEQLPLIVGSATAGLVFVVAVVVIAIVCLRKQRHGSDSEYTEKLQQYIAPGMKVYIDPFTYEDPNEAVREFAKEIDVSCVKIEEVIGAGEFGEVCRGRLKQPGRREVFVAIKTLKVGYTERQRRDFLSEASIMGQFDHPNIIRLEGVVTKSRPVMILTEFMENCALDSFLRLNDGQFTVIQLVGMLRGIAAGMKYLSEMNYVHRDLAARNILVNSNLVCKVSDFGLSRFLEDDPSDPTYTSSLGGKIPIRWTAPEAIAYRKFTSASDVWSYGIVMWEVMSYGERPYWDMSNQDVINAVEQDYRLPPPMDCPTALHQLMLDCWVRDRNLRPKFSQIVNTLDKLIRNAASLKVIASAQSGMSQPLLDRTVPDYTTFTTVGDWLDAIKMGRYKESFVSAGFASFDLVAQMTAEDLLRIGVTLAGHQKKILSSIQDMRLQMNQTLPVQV
Sequence of MARK3 (P27448 whole entry): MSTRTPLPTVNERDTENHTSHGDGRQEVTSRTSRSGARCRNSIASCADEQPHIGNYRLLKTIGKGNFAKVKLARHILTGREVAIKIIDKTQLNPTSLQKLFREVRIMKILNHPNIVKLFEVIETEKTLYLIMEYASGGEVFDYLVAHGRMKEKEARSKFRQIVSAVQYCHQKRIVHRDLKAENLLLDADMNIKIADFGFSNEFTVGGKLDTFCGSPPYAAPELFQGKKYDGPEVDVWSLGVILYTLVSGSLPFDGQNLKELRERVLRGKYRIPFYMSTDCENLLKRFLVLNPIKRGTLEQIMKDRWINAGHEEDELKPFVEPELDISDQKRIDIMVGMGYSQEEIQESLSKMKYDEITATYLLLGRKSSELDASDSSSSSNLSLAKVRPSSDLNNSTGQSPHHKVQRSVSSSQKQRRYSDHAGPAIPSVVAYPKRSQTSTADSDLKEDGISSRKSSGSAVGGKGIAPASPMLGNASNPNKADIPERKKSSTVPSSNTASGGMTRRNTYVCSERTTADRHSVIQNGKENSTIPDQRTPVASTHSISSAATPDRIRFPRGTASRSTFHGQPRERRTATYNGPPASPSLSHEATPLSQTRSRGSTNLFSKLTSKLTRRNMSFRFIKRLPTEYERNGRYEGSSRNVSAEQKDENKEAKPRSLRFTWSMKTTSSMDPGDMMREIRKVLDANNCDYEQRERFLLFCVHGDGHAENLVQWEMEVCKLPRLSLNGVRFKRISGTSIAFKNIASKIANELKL
Sequence of DDR2 (Q16832 22-855): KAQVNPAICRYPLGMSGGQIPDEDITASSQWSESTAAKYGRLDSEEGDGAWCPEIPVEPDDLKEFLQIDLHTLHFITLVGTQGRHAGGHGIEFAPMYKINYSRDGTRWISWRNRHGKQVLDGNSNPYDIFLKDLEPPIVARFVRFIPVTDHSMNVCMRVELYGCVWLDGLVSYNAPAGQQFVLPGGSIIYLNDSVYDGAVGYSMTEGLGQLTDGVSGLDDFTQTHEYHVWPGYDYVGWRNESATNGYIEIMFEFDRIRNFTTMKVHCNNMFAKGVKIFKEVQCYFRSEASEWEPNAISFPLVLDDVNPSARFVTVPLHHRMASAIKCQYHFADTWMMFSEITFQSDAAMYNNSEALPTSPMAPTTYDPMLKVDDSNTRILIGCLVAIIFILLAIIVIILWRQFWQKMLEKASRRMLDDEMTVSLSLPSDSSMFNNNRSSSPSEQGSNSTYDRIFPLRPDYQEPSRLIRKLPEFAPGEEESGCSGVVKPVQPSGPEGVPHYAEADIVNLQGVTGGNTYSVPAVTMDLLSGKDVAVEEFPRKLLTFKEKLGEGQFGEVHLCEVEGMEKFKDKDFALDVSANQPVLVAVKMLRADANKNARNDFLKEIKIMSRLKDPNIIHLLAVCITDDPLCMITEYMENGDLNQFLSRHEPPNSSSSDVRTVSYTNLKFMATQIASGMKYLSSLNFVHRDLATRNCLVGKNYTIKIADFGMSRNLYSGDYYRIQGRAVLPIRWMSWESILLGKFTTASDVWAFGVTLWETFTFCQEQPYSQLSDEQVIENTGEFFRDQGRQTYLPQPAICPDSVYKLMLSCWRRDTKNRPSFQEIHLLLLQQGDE
Sequence of GSK3b (P49841 whole entry): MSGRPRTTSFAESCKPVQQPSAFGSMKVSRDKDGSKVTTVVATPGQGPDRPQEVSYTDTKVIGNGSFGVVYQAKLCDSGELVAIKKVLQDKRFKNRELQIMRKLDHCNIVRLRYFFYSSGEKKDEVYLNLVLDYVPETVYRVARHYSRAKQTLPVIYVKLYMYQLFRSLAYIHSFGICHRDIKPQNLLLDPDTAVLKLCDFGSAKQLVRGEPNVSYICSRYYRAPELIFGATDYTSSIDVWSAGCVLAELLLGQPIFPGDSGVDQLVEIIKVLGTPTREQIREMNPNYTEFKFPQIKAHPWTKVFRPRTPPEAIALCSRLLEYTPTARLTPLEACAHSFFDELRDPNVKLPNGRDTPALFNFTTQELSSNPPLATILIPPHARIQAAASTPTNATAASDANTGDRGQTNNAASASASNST

| Structure (SMILES) | GSK3b activity in kinase profiling [1] | CHK2 activity in kinase profiling [2] | LKB1 activity in kinase profiling [3] | MKK2 activity in kinase profiling [4] | NEK6 activity in kinase profiling [5] | CSK activity in kinase profiling [6] | MKK1 activity in kinase profiling [7] | MARK3 activity in kinase profiling [8] | p38g MAPK activity in kinase profiling [9] | S6K1 activity in kinase profiling [10] | MST4 activity in kinase profiling [11] | Aurora B activity in kinase profiling [12] | TESK1 activity in kinase profiling [13] | DDR2 activity in kinase profiling [14] | EPH-B3 activity in kinase profiling [15] | JNK1 activity in kinase profiling [16] | RIPK2 activity in kinase profiling [17] | HIPK2 activity in kinase profiling [18] | WNK1 activity in kinase profiling [19] | CLK2 activity in kinase profiling [20] | further results |
| --- | --- | --- | --- | --- | --- | --- | --- | --- | --- | --- | --- | --- | --- | --- | --- | --- | --- | --- | --- | --- | --- |
| Cc1nc2ccc3sc(NC(=O)c4ccc5ncsc5c4)nc3c2s1 [3A5, N-(2-methyl[1,3]thiazolo[5,4-e][1,3]benzothiazol-7-yl)-1,3-benzothiazole-6-carboxamide] | 102 | 77 | 79 | 115 | 104 | 93 | 72 | 91 | 107 | 72 | 90 | 69 | 96 | 88 | 89 | 67 | 83 | 96 | 99 | 3.39 | inhibition at 1 µM [20]: 97%; IRAK1 activity in kinase profiling [21]: 88; PDK1 activity in kinase profiling [22]: 93; MPSK1 activity in kinase profiling [23]: 150; PKD1 activity in kinase profiling [24]: 96; IR activity in kinase profiling [25]: 127; p38d MAPK activity in kinase profiling [26]: 105; RSK1 activity in kinase profiling [27]: 83; activity at 1 µM [28]: 123%; SmMLCK activity in kinase profiling [29]: 50; % inhibition of luciferase [30]: 6.7 ± 2.8%; inhibition at 10 µM [31]: 68% |
| CSc1nc2ccc3nc(NC(=O)c4ccco4)sc3c2s1 [5E4, N-[7-(methylsulfanyl)[1,3]thiazolo[4,5-g][1,3]benzothiazol-2-yl]-2-furamide] | 84 | 88 | 79 | 121 | 91 | 99 | 85 | 83 | 105 | 80 | 93 | 64 | 95 | 95 | 110 | 91 | 34 | 19 | 90 | 3 | inhibition at 1 µM [20]: 97%; IRAK1 activity in kinase profiling [21]: 87; PDK1 activity in kinase profiling [22]: 88; MPSK1 activity in kinase profiling [23]: 114; PKD1 activity in kinase profiling [24]: 98; IR activity in kinase profiling [25]: 116; p38d MAPK activity in kinase profiling [26]: 103; RSK1 activity in kinase profiling [27]: 92; activity at 1 µM [28]: 103%; SmMLCK activity in kinase profiling [29]: 43; % inhibition of luciferase [30]: 29.7 ± 2.9%; inhibition at 10 µM [31]: 57% |
